In patent US11613552B2, “Pharmaceutical agents, compositions, and methods relating thereto” (Alltech, Inc., priority 2017, dated 2023):

How the values were obtained:
G6PC = assay: QRT-PCR of G6PC expression in HepG2 cells; format: cell-based, human; conditions: 100 nM insulin or 600 ppb Compound #43, serum-free, 40 hr (FIG. 10B)
Protocol: For RNA analysis of basal G6pc expression (without the presence of diabetic stimuli: 8-CPT/Dex), amplified AML-12 and HepG2 cells were cultured on 24-well plates (0.5-2×10^5 cells/well) overnight in 10% FBS ITS- and Dex-free DMEM/F12 media and 10% FBS EMEM media, respectively. These cells were rinsed twice with PBS to remove residual sera. Then, the PBS-washed HepG2 cells were treated without or with insulin or Compound #43 in serum-free EMEM media for 40 hr. In some experiments, the PBS-washed AML-12 cells were incubated without or with Compound #43 or other selenium compounds in serum-free DMEM/F12 media for 24 hours. In other experiments, amplified AML-12 cells were pretreated without or with Compound #43 (150 or 300 ppb) in 10% FBS but ITS/Dex-free DMEM/F12 media for 24 hr. After 24 hr treatment, AML-12 cells were washed twice with PBS (to remove any residual serum in the culture) and then treated with insulin, Compound #43 or both, in the serum-free DMEM/Dex media for 6 hr.
Total RNA from saline- or selenium compound-treated Lepr^db/db mice was isolated using a Qiagen RNAeasy RNA isolation kit according to the Manufacturer's protocol. Total RNA from cultured cells was isolated using Trizol (Invitrogen) according to the manufacturer's protocol, and then incubated with DNase I to remove any potential contaminating genomic DNA. […]

Glut4 = assay: QRT-PCR of Glut4 mRNA in livers of Lepr^db/db mice; format: in vivo, mouse; conditions: 25 μg selenium/kg ip daily, 52 days (FIG. 15)
Protocol: Male Lepr^db/db mice (C57BL/6J strain, purchased from The Jackson Laboratory) at postnatal day 38 were intraperitoneally injected daily with physiological saline ([…]) containing 0.2% DMSO, Compound #43, or Compound #50 (25 μg selenium of each compound per kilogram body weight, diluted in sterile physiological saline) for 52 days. After treatment, livers were collected and subjected to RNA analysis.
Total liver RNA from saline- or Compound #43-treated Lepr^db/db mice was isolated using a Qiagen RNAeasy RNA isolation kit according to the Manufacturer's protocol. Total RNA from cultured cells was isolated using Trizol (Invitrogen) according to the manufacturer's protocol, and then incubated with DNase I to remove any potential contaminating genomic DNA. RNA samples were subjected to real-time PCR analysis using Applied-Bioscience's RT kit and predesigned Taqman probes (Invitrogen), as described previously (Lan et al EMBO J 2003). Data were normalized by Actin B (Actb) mRNA levels in each sample and are presented as mean±SEM of 3-5 samples.

Insrβ = target: T1, Insrβ (Mus musculus, UniProt P15208); assay: Western blot of Insrβ phosphorylation in skeletal muscle of Lepr^db/db mice; format: in vivo; conditions: 0.136 mg/kg ip daily
T1 construct: gastrocnemius skeletal muscle and liver samples were collected and stored at −80° C; from tissue; host or cells: gastrocnemius skeletal muscle (A22) and liver (A24) of Lepr db/db mice
Protocol: Male Lepr^db/db mice (C57BL/6J strain, purchased from The Jackson Laboratory) at postnatal day 38 were intraperitoneally injected daily with physiological saline ([…]) containing 0.2% DMSO, or 0.136 mg of Compound #43 per kilogram body weight, diluted in the sterile physiological saline) for 52 days. After the treatment, gastrocnemius skeletal muscle and liver samples were collected and stored at −80° C.
Frozen skeletal muscle and liver tissues were minced in sterile ice-old PBS containing complete proteinase and phosphatase inhibitors (Thermo-Fisher Scientific, Waltham, Mass.) and subjected to homogenization using a tissue homogenizer (Thermo-Fisher Scientific, Waltham, Mass.). These tissue homogenates were diluted in Themo-Fisher's premade RIPA buffer (1 part homogenate/2 part of RIPA buffer) containing complete proteinase/phosphatase inhibitors to extract the proteins. Proteins in the homogenates were extracted in RIPA buffer at 4° C. overnight. These overnight-extracted protein/tissue lysates were centrifuged at 12000×g for 30 min at 4° C., and the protein levels in the supernatant of these tissue lysates were determined using the Pierce Micro-BCA protein assay kit (Thermo Scientific-Piece Biotechnology, Rockford, Ill.) according to the manufacturer's protocol. […]

INSRβ/AS160 = assay: Western blot of INSRβ and AS160 phosphorylation in HepG2 cells; format: cell-based, human; conditions: 600 ppb, 30 and 60 minutes (FIG. 23)
Protocol: HepG2 cells were seeded on 6-well plates (7×10^5 cells/well) and cultured in 10% FBS EMEM media for 30 hr. Then these cells were washed twice with PBS to remove residual sera, and serum-starved in plain EMEM media overnight. These serum-starved HepG2 cells were treated without or with Compound #43 (600 ppb) in serum-free media for 0 minute (right before the treatment), 30 and 60 minutes.
After the above treatments, cultured HepG2 cells or differentiated C2C12 cells were rinsed twice with ice-cold PBS and lysed in ice-cold RIPA buffer containing complete proteinase and phosphatase inhibitors (Thermo-Fisher Scientific, Waltham, Mass.) on ice for 30 min. […] Protein levels in the supernatant of these cell lysates were determined using the Pierce Micro-BCA protein assay kit (Thermo Scientific-Piece Biotechnology, Rockford, Ill.) according to the manufacturer's protocol.
One hundred micrograms of skeletal muscle or liver tissue proteins, five micrograms of HepG2 cell protein extracts, or eight micrograms of differentiated C2C12 cell protein extracts were subjected to SDS-PAGE gel separation and then transferred to PVDF membranes, as described previously (Reddy et al. 2008 Science). […] Positive signals on the membrane blots were detected using the Amersham's enhanced chemiluminescence Western Blotting Prime Detection reagents (GE Healthcare Lifescience, Pittsburgh, Pa.). […]

T1 sequence (P15208 753-1372 limits assumed): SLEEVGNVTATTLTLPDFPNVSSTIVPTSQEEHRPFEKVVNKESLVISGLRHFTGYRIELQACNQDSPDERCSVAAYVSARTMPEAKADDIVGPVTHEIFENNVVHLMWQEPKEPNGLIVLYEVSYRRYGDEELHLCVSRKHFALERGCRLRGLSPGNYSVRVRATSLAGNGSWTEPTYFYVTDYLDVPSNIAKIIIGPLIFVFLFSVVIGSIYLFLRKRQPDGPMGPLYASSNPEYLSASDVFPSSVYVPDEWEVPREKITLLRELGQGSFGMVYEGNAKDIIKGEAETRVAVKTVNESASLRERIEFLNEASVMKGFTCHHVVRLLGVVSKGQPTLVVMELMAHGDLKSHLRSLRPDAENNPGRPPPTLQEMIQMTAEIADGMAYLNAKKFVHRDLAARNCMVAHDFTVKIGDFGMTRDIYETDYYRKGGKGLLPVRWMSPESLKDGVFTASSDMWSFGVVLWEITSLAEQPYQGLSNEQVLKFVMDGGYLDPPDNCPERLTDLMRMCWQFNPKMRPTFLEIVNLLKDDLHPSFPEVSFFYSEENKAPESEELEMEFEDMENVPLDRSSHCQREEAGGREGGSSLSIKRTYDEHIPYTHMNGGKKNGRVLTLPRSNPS
T1 sequence (P15208 28-748 partner limits assumed): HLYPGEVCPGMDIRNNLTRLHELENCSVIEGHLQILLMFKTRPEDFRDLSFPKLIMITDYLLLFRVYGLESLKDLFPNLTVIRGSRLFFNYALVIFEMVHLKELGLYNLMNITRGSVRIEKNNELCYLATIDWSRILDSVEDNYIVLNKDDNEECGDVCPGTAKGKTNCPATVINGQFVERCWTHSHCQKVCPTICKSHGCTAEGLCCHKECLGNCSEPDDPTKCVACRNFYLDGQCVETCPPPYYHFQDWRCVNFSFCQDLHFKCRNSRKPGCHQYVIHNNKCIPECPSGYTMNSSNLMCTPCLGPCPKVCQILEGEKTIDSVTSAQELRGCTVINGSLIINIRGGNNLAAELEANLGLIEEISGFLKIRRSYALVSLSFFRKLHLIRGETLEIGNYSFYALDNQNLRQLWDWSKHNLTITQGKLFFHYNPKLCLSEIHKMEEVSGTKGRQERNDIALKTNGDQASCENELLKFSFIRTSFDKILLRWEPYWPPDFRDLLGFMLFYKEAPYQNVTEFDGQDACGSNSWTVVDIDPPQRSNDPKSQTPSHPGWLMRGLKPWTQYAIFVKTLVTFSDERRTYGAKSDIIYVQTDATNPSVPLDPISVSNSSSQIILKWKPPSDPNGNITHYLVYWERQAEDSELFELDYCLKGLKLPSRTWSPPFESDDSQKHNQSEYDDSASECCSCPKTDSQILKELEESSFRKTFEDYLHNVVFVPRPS

Row | Compound | effect on G6PC expression (G6PC) | increase in Glut4 mRNA expression levels in the liver (Glut4) [fold] | increase of phosphorylated Insrβ (Tyrosine 1146) in skeletal muscle (Insrβ; 52 days (FIG. 20B)) [fold] | total Insrβ protein levels in skeletal muscle (Insrβ; 52 days (FIG. 20C)) | phosphorylated AS160 (INSRβ/AS160) | phosphorylated INSRβ at Y1146 (INSRβ/AS160)
1 | insulin: insulin purchased from Sigma, positive control | significant decrease of G6PC expression |  |  |  |  | 
2 | C[Se]C[C@H]1O[C@@H](n2cnc3c(N)ncnc32)C(OC(C)=O)C1OC(C)=O (stereo partly shown) [Compound #43, Adenosine, 5′-Se-methyl-5′-selino-, 2′,3′-diacetate] | significantly attenuated | 5 | ~2.5 | no significant change of total Insrβ protein levels | significant increase of phosphorylated AS160 at 5588 | significant increase of phosphorylated INSRβ at Y1146
